Data reported in ChEMBL document CHEMBL4346757, “Synthesis and biological evaluation of 7-methoxy-1-(3,4,5-trimethoxyphenyl)-4,5-dihydro-2H-benzo[e]indazoles as new colchicine site inhibitors” (Bioorg Med Chem Lett, 2019).

Legend:
Assay type in all cases: functional
HOP-62 = experiment: Growth inhibition of human HOP62 cells assessed as cell growth at 0.01 uM after 48 hrs by SRB assay relative to control; conditions: HOP-62, 48 h, read-out: Activity
NCI-H23 = experiment: Growth inhibition of human NCI-H23 cells assessed as cell growth at 0.01 uM after 48 hrs by SRB assay relative to control; conditions: NCI-H23, 48 h, read-out: Activity
HT-29 = experiment: Growth inhibition of human HT-29 cells assessed as cell growth at 0.01 uM after 48 hrs by SRB assay relative to control; conditions: HT-29, 48 h, read-out: Activity
KM12 [1] = experiment: Growth inhibition of human KM12 cells assessed as cell growth at 0.01 uM after 48 hrs by SRB assay relative to control; conditions: KM12, 48 h, read-out: Activity
NCI/ADR-RES [2] = experiment: Growth inhibition of human NCI-ADR-RES cells assessed as cell growth at 0.01 uM after 48 hrs by SRB assay relative to control; conditions: read-out: Activity
SN12C [3] = experiment: Growth inhibition of human SN12C cells assessed as cell growth at 0.01 uM after 48 hrs by SRB assay relative to control; conditions: read-out: Activity
KM12 [4] = experiment: Growth inhibition of human KM12 cells assessed as cell growth at 0.1 uM after 48 hrs by SRB assay relative to control; conditions: KM12, 48 h, read-out: Activity
SNB-19 [5] = experiment: Growth inhibition of human SNB19 cells assessed as cell growth at 0.1 uM after 48 hrs by SRB assay relative to control; conditions: SNB-19, 48 h, read-out: Activity
LOX IMVI = experiment: Growth inhibition of human LOXIMVI cells assessed as cell growth at 0.1 uM after 48 hrs by SRB assay relative to control; conditions: read-out: Activity
BT-549 = experiment: Growth inhibition of human BT549 cells assessed as cell growth at 0.1 uM after 48 hrs by SRB assay relative to control; conditions: BT-549, 48 h, read-out: Activity
NCI-H522 = experiment: Growth inhibition of human NCI-H522 cells assessed as cell growth at 1 uM after 48 hrs by SRB assay relative to control; conditions: NCI-H522, 48 h, read-out: Activity
HCC 2998 = experiment: Growth inhibition of human HCC2998 cells assessed as cell growth at 1 uM after 48 hrs by SRB assay relative to control; conditions: HCC 2998, 48 h, read-out: Activity
UACC-257 = experiment: Growth inhibition of human UACC257 cells assessed as cell growth at 1 uM after 48 hrs by SRB assay relative to control; conditions: UACC-257, 48 h, read-out: Activity
IGROV-1 = experiment: Growth inhibition of human IGROV1 cells assessed as cell growth at 1 uM after 48 hrs by SRB assay relative to control; conditions: IGROV-1, 48 h, read-out: Activity
CCRF-CEM = experiment: Growth inhibition of human CCRF-CEM cells assessed as cell growth at 10 uM after 48 hrs by SRB assay relative to control; conditions: read-out: Activity
HCT-116 = experiment: Growth inhibition of human HCT116 cells assessed as cell growth at 10 uM after 48 hrs by SRB assay relative to control; conditions: HCT-116, 48 h, read-out: Activity
SK-MEL-5 = experiment: Growth inhibition of human SK-MEL-5 cells assessed as cell growth at 10 uM after 48 hrs by SRB assay relative to control; conditions: SK-MEL-5, 48 h, read-out: Activity
OVCAR-4 = experiment: Growth inhibition of human OVCAR4 cells assessed as cell growth at 10 uM after 48 hrs by SRB assay relative to control; conditions: OVCAR-4, 48 h, read-out: Activity
NCI/ADR-RES [6] = experiment: Growth inhibition of human NCI-ADR-RES cells assessed as cell growth at 10 uM after 48 hrs by SRB assay relative to control; conditions: read-out: Activity
MCF7 = experiment: Growth inhibition of human MCF7 cells assessed as cell growth at 10 uM after 48 hrs by SRB assay relative to control; conditions: MCF7, 48 h, read-out: Activity
Hs-578T [7] = experiment: Growth inhibition of human Hs 578T cells assessed as cell growth at 10 uM after 48 hrs by SRB assay relative to control; conditions: read-out: Activity
SW-620 = experiment: Growth inhibition of human SW620 cells assessed as cell growth at 100 uM after 48 hrs by SRB assay relative to control; conditions: SW-620, 48 h, read-out: Activity
SNB-19 [8] = experiment: Growth inhibition of human SNB19 cells assessed as cell growth at 100 uM after 48 hrs by SRB assay relative to control; conditions: SNB-19, 48 h, read-out: Activity
MDA-MB-435 = experiment: Growth inhibition of human MDA-MB-435 cells assessed as cell growth at 100 uM after 48 hrs by SRB assay relative to control; conditions: MDA-MB-435, 48 h, read-out: Activity
MDA-MB-231 = experiment: Growth inhibition of human MDA-MB-231/ATCC cells assessed as cell growth at 100 uM after 48 hrs by SRB assay relative to control; conditions: MDA-MB-231, 48 h, read-out: Activity
SR = experiment: Cytotoxicity against human SR cells assessed as growth inhibition after 48 hrs by SRB assay
NCI-H460 = experiment: Cytotoxicity against human NCI-H460 cells assessed as growth inhibition after 48 hrs by SRB assay; conditions: NCI-H460, 48 h
M14 = experiment: Cytotoxicity against human M14 cells assessed as growth inhibition after 48 hrs by SRB assay; conditions: M14, 48 h
A498 = experiment: Cytotoxicity against human A498 cells assessed as growth inhibition after 48 hrs by SRB assay; conditions: A498, 48 h
SN12C [9] = experiment: Cytotoxicity against human SN12C cells assessed as growth inhibition after 48 hrs by SRB assay
Hs-578T [10] = experiment: Cytotoxicity against human Hs 578T cells assessed as growth inhibition after 48 hrs by SRB assay
[11] = read-out: LC50 (the source's name)
[12] = read-out: pLC50 (the source's name) (converted)

Question: How did the growth at 0.01 µM (HOP-62) turn out when `COc1ccc2c(c1)CCc1n[nH]c(-c3cc(OC)c(OC)c(OC)c3)c1-2` was run?
Answer: 11%

Question: What about the growth at 0.01 µM (NCI-H23) of the same compound?
Answer: 14%

Question: And the growth at 0.01 µM (HT-29)?
Answer: 5%

Question: What about the growth at 0.01 µM (KM12 [1]) of the same compound?
Answer: 14%

Question: What about the growth at 0.01 µM (NCI/ADR-RES [2]) of the same compound?
Answer: -13%

Question: And the growth at 0.01 µM (SN12C [3])?
Answer: 39%

Question: What about the growth at 0.1 µM (KM12 [4]) of the same compound?
Answer: 10%

Question: And the growth at 0.1 µM (SNB-19 [5])?
Answer: 33%

Question: What about the growth at 0.1 µM (LOX IMVI) of the same compound?
Answer: 16%

Question: And the growth at 0.1 µM (BT-549)?
Answer: 1%

Question: And the growth at 1 µM (NCI-H522)?
Answer: -16%

Question: And the growth at 1 µM (HCC 2998)?
Answer: 14%

Question: And the growth at 1 µM (UACC-257)?
Answer: 62%

Question: And the growth at 1 µM (IGROV-1)?
Answer: 26%

Question: And the growth at 10 µM (CCRF-CEM)?
Answer: 41%

Question: What about the growth at 10 µM (HCT-116) of the same compound?
Answer: -15%

Question: And the growth at 10 µM (SK-MEL-5)?
Answer: -21%

Question: What about the growth at 10 µM (OVCAR-4) of the same compound?
Answer: 35%

Question: What about the growth at 10 µM (NCI/ADR-RES [6]) of the same compound?
Answer: -11%

Question: What about the growth at 10 µM (MCF7) of the same compound?
Answer: 5%

Question: And the growth at 10 µM (Hs-578T [7])?
Answer: 9%

Question: And the growth at 100 µM (SW-620)?
Answer: -75%

Question: What about the growth at 100 µM (SNB-19 [8]) of the same compound?
Answer: -12%

Question: What about the growth at 100 µM (MDA-MB-435) of the same compound?
Answer: -64%

Question: And the growth at 100 µM (MDA-MB-231)?
Answer: -18%

Question: And the GI50 (SR; read-out: GI50)?
Answer: < 10 nM

Question: And the CC50 (SR; [11])?
Answer: > 100 µM

Question: What about the TGI (SR; read-out: TGI) of the same compound?
Answer: 22.9 µM

Question: And the GI50 (SR; read-out: pGI50 (converted))?
Answer: < 10 nM

Question: And the CC50 (SR; [12])?
Answer: > 100 µM

Question: What about the TGI (SR; read-out: pTGI (converted)) of the same compound?
Answer: 22.9 µM

Question: And the GI50 (NCI-H460; read-out: GI50)?
Answer: < 10 nM

Question: And the CC50 (NCI-H460; [11])?
Answer: 68.5 µM

Question: And the TGI (NCI-H460; read-out: TGI)?
Answer: 2060 nM

Question: What about the GI50 (NCI-H460; read-out: pGI50 (converted)) of the same compound?
Answer: < 10 nM

Question: And the CC50 (NCI-H460; [12])?
Answer: 69.2 µM

Question: What about the TGI (NCI-H460; read-out: pTGI (converted)) of the same compound?
Answer: 2040 nM

Question: And the GI50 (M14; read-out: GI50)?
Answer: < 10 nM

Question: What about the LC50 (M14; read-out: LC50) of the same compound?
Answer: 58.7 µM

Question: And the TGI (M14; read-out: TGI)?
Answer: 10.9 µM

Question: And the GI50 (M14; read-out: pGI50 (converted))?
Answer: < 10 nM

Question: What about the LC50 (M14; read-out: pLC50 (converted)) of the same compound?
Answer: 58.9 µM

Question: And the TGI (M14; read-out: pTGI (converted))?
Answer: 11 µM

Question: What about the GI50 (A498; read-out: GI50) of the same compound?
Answer: < 10 nM

Question: And the CC50 (A498; [11])?
Answer: 55.9 µM

Question: And the TGI (A498; read-out: TGI)?
Answer: < 10 nM

Question: What about the GI50 (A498; read-out: pGI50 (converted)) of the same compound?
Answer: < 10 nM

Question: What about the CC50 (A498; [12]) of the same compound?
Answer: 56.2 µM

Question: And the TGI (A498; read-out: pTGI)?
Answer: < 10 nM

Question: And the GI50 (SN12C [9]; read-out: GI50)?
Answer: < 10 nM

Question: And the CC50 (SN12C [9]; [11])?
Answer: > 100 µM

Question: And the TGI (SN12C [9]; read-out: TGI)?
Answer: 22 µM

Question: What about the GI50 (SN12C [9]; read-out: pGI50 (converted)) of the same compound?
Answer: < 10 nM

Question: And the CC50 (SN12C [9]; [12])?
Answer: > 100 µM

Question: And the TGI (SN12C [9]; read-out: pTGI (converted))?
Answer: 21.9 µM

Question: What about the GI50 (Hs-578T [10]; read-out: GI50) of the same compound?
Answer: < 10 nM

Question: And the LC50 (Hs-578T [10]; read-out: LC50)?
Answer: > 100 µM

Question: And the TGI (Hs-578T [10]; read-out: TGI)?
Answer: 22.3 µM

Question: What about the GI50 (Hs-578T [10]; read-out: pGI50 (converted)) of the same compound?
Answer: < 10 nM

Question: And the LC50 (Hs-578T [10]; read-out: pLC50 (converted))?
Answer: > 100 µM

Question: What about the TGI (Hs-578T [10]; read-out: pTGI (converted)) of the same compound?
Answer: 22.4 µM
